Laboratory results as given in patent publication US9738634B2, “Heterocyclic amide compound and herbicide” (SYNGENTA PARTICIPATIONS AG, priority 2013, dated 2017).

Key:
Format in all cases: in vivo
Conditions in all cases: treatment dosage 320 g/ha
common wind-grass [1] = experiment: Test Example 3: weedkilling efficacy through soil treatment; J: common wind-grass
How it was run: (§1)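 Crop and weed responses were judged three weeks after a uniform surface spray of the water-diluted emulsion at the given g/ha rate. Seeds sat beneath about 1.5 cm of sterilized diluvial soil, and boxes stood in a greenhouse at 25 to 30° C.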

fig-leafed goosefoot [2] = experiment: Test Example 4: weedkilling efficacy by foliar treatment; M: fig-leafed goosefoot
How it was run: (§2)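 Seeds are spot-sown into sterilized diluvial soil and covered with about 1.5 cm of soil. After 14 days' greenhouse growth at 25 to 30° C, plants are sprayed on stems and leaves with diluted emulsion at the stated g/ha rate, then scored at 3 weeks.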

wild oat [3] = experiment: Test Example 4: weedkilling efficacy by foliar treatment; G: wild oat
How it was run: as §2

green foxtail [4] = experiment: Test Example 3: weedkilling efficacy through soil treatment; E: green foxtail
How it was run: as §1

directly sown rice [5] = experiment: Test Example 4: foliar treatment, effect on crop; b: directly sown rice
How it was run: as §2

Italian ryegrass [6] = experiment: Test Example 3: weedkilling efficacy through soil treatment; I: Italian ryegrass
How it was run: as §1

common wind-grass [7] = experiment: Test Example 4: weedkilling efficacy by foliar treatment; J: common wind-grass
How it was run: as §2

black-grass [8] = experiment: Test Example 3: weedkilling efficacy through soil treatment; H: black-grass
How it was run: as §1

barnyard grass [9] = experiment: Test Example 4: weedkilling efficacy by foliar treatment; F: barnyard grass
How it was run: as §2

corn [10] = experiment: Test Example 3: soil treatment, effect on crop; c: corn
How it was run: as §1

soybean [11] = experiment: Test Example 3: soil treatment, effect on crop; d: soybean
How it was run: as §1

corn [12] = experiment: Test Example 4: foliar treatment, effect on crop; c: corn
How it was run: as §2

bulrush [13] = experiment: Test Example 2: weedkilling efficacy, growth period weed treatment in the submerged state; B: bulrush
How it was run: (§3)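 Barnyard grass, bulrush and oval-leafed pondweed sown in alluvial soil under 4 cm flooding, greenhouse 25 to 30° C. At 1-2 leaf stage, water-diluted emulsion applied to the water surface at stated g/ha dosages; effects scored 3 weeks later.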

rapeseed [14] = experiment: Test Example 4: foliar treatment, effect on crop; g: rapeseed
How it was run: as §2

birds-eye speedwell [15] = experiment: Test Example 4: weedkilling efficacy by foliar treatment; p: birds-eye speedwell
How it was run: as §2

bulrush [16] = experiment: Test Example 1: weedkilling efficacy, preemergent weed treatment in the submerged state; B: bulrush
How it was run: (§4)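 Pots of alluvial soil flooded 4 cm deep, sown with barnyard grass, bulrush and oval-leafed pondweed and transplanted with 2.5-leaf rice. Emulsified compound applied to the water surface on sowing day at stated g/ha; greenhouse 25–30 °C, effects assessed 3 weeks after treatment.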

catchweed = experiment: Test Example 4: weedkilling efficacy by foliar treatment; O: catchweed
How it was run: as §2

chickweed [17] = experiment: Test Example 4: weedkilling efficacy by foliar treatment; N: chickweed
How it was run: as §2

crabgrass [18] = experiment: Test Example 4: weedkilling efficacy by foliar treatment; D: crabgrass
How it was run: as §2

barnyard grass [19] = experiment: Test Example 3: weedkilling efficacy through soil treatment; F: barnyard grass
How it was run: as §1

chickweed [20] = experiment: Test Example 3: weedkilling efficacy through soil treatment; N: chickweed
How it was run: as §1

Indian mallow [21] = experiment: Test Example 3: weedkilling efficacy through soil treatment; K: Indian mallow
How it was run: as §1

rapeseed [22] = experiment: Test Example 3: soil treatment, effect on crop; g: rapeseed
How it was run: as §1

wheat [23] = experiment: Test Example 3: soil treatment, effect on crop; e: wheat
How it was run: as §1

beet [24] = experiment: Test Example 4: foliar treatment, effect on crop; f: beet
How it was run: as §2

soybean [25] = experiment: Test Example 4: foliar treatment, effect on crop; d: soybean
How it was run: as §2

wild oat [26] = experiment: Test Example 3: weedkilling efficacy through soil treatment; G: wild oat
How it was run: as §1

oval-leafed pondweed [27] = experiment: Test Example 1: weedkilling efficacy, preemergent weed treatment in the submerged state; C: oval-leafed pondweed
How it was run: as §4

redroot pigweed [28] = experiment: Test Example 3: weedkilling efficacy through soil treatment; L: redroot pigweed
How it was run: as §1

fig-leafed goosefoot [29] = experiment: Test Example 3: weedkilling efficacy through soil treatment; M: fig-leafed goosefoot
How it was run: as §1

beet [30] = experiment: Test Example 3: soil treatment, effect on crop; f: beet
How it was run: as §1

barnyard grass [31] = experiment: Test Example 1: weedkilling efficacy, preemergent weed treatment in the submerged state; A: barnyard grass
How it was run: as §4

redroot pigweed [32] = experiment: Test Example 4: weedkilling efficacy by foliar treatment; L: redroot pigweed
How it was run: as §2

barnyard grass [33] = experiment: Test Example 2: weedkilling efficacy, growth period weed treatment in the submerged state; A: barnyard grass
How it was run: as §3

birds-eye speedwell [34] = experiment: Test Example 3: weedkilling efficacy through soil treatment; p: birds-eye speedwell
How it was run: as §1

transplanted rice = experiment: Test Example 1: preemergent weed treatment in the submerged state, effect on crop; a: transplanted rice
How it was run: as §4

Indian mallow [35] = experiment: Test Example 4: weedkilling efficacy by foliar treatment; K: Indian mallow
How it was run: as §2

crabgrass [36] = experiment: Test Example 3: weedkilling efficacy through soil treatment; D: crabgrass
How it was run: as §1

wheat [37] = experiment: Test Example 4: foliar treatment, effect on crop; e: wheat
How it was run: as §2

green foxtail [38] = experiment: Test Example 4: weedkilling efficacy by foliar treatment; E: green foxtail
How it was run: as §2

Italian ryegrass [39] = experiment: Test Example 4: weedkilling efficacy by foliar treatment; I: Italian ryegrass
How it was run: as §2

black-grass [40] = experiment: Test Example 4: weedkilling efficacy by foliar treatment; H: black-grass
How it was run: as §2

directly sown rice [41] = experiment: Test Example 3: soil treatment, effect on crop; b: directly sown rice
How it was run: as §1

oval-leafed pondweed [42] = experiment: Test Example 2: weedkilling efficacy, growth period weed treatment in the submerged state; C: oval-leafed pondweed
How it was run: as §3

SMILES: CC1=C(c2ccccc2)C(=O)N(C(C)(C)C(=O)Nc2cc(Cl)cc(C)n2)CO1 [B-2-42]
- J (common wind-grass) weedkilling efficacy grade (common wind-grass [1]): 5 (weed kill ratio 90% or more, (practically complete withering))
- M (fig-leafed goosefoot) weedkilling efficacy grade (fig-leafed goosefoot [2]): 4 (weed kill ratio 70% or more, less than 90%)
- G (wild oat) weedkilling efficacy grade (wild oat [3]): 3 (weed kill ratio 40% or more, less than 70%)
- E (green foxtail) weedkilling efficacy grade (green foxtail [4]): 5 (weed kill ratio 90% or more, (practically complete withering))
- b (directly sown rice) effect on crop grade (directly sown rice [5]): 4 (weed kill ratio 70% or more, less than 90%)
- I (Italian ryegrass) weedkilling efficacy grade (Italian ryegrass [6]): 5 (weed kill ratio 90% or more, (practically complete withering))
- J (common wind-grass) weedkilling efficacy grade (common wind-grass [7]): 5 (weed kill ratio 90% or more, (practically complete withering))
- H (black-grass) weedkilling efficacy grade (black-grass [8]): 5 (weed kill ratio 90% or more, (practically complete withering))
- F (barnyard grass) weedkilling efficacy grade (barnyard grass [9]): 5 (weed kill ratio 90% or more, (practically complete withering))
- c (corn) effect on crop grade (corn [10]): 1 (weed kill ratio 5% or more, less than 20%)
- d (soybean) effect on crop grade (soybean [11]): 0 (weed kill ratio 5% or less (practically no effect))
- c (corn) effect on crop grade (corn [12]): 3 (weed kill ratio 40% or more, less than 70%)
- B (bulrush) weedkilling efficacy grade (bulrush [13]): 5 (weed kill ratio 90% or more, (practically complete withering))
- g (rapeseed) effect on crop grade (rapeseed [14]): 4 (weed kill ratio 70% or more, less than 90%)
- P (birds-eye speedwell) weedkilling efficacy grade (birds-eye speedwell [15]): 4 (weed kill ratio 70% or more, less than 90%)
- B (bulrush) weedkilling efficacy grade (bulrush [16]): 5 (weed kill ratio 90% or more, (practically complete withering))
- O (catchweed) weedkilling efficacy grade (catchweed): 5 (weed kill ratio 90% or more, (practically complete withering))
- N (chickweed) weedkilling efficacy grade (chickweed [17]): 4 (weed kill ratio 70% or more, less than 90%)
- D (crabgrass) weedkilling efficacy grade (crabgrass [18]): 5 (weed kill ratio 90% or more, (practically complete withering))
- F (barnyard grass) weedkilling efficacy grade (barnyard grass [19]): 5 (weed kill ratio 90% or more, (practically complete withering))
- N (chickweed) weedkilling efficacy grade (chickweed [20]): 4 (weed kill ratio 70% or more, less than 90%)
- K (Indian mallow) weedkilling efficacy grade (Indian mallow [21]): 4 (weed kill ratio 70% or more, less than 90%)
- g (rapeseed) effect on crop grade (rapeseed [22]): 4 (weed kill ratio 70% or more, less than 90%)
- e (wheat) effect on crop grade (wheat [23]): 0 (weed kill ratio 5% or less (practically no effect))
- f (beet) effect on crop grade (beet [24]): 4 (weed kill ratio 70% or more, less than 90%)
- d (soybean) effect on crop grade (soybean [25]): 4 (weed kill ratio 70% or more, less than 90%)
- G (wild oat) weedkilling efficacy grade (wild oat [26]): 5 (weed kill ratio 90% or more, (practically complete withering))
- C (oval-leafed pondweed) weedkilling efficacy grade (oval-leafed pondweed [27]): 5 (weed kill ratio 90% or more, (practically complete withering))
- L (redroot pigweed) weedkilling efficacy grade (redroot pigweed [28]): 3 (weed kill ratio 40% or more, less than 70%)
- M (fig-leafed goosefoot) weedkilling efficacy grade (fig-leafed goosefoot [29]): 4 (weed kill ratio 70% or more, less than 90%)
- f (beet) effect on crop grade (beet [30]): 4 (weed kill ratio 70% or more, less than 90%)
- A (barnyard grass) weedkilling efficacy grade (barnyard grass [31]): 5 (weed kill ratio 90% or more, (practically complete withering))
- L (redroot pigweed) weedkilling efficacy grade (redroot pigweed [32]): 4 (weed kill ratio 70% or more, less than 90%)
- A (barnyard grass) weedkilling efficacy grade (barnyard grass [33]): 5 (weed kill ratio 90% or more, (practically complete withering))
- P (birds-eye speedwell) weedkilling efficacy grade (birds-eye speedwell [34]): 5 (weed kill ratio 90% or more, (practically complete withering))
- a (transplanted rice) effect on crop grade (transplanted rice): 4 (weed kill ratio 70% or more, less than 90%)
- K (Indian mallow) weedkilling efficacy grade (Indian mallow [35]): 5 (weed kill ratio 90% or more, (practically complete withering))
- D (crabgrass) weedkilling efficacy grade (crabgrass [36]): 5 (weed kill ratio 90% or more, (practically complete withering))
- e (wheat) effect on crop grade (wheat [37]): 0 (weed kill ratio 5% or less (practically no effect))
- E (green foxtail) weedkilling efficacy grade (green foxtail [38]): 5 (weed kill ratio 90% or more, (practically complete withering))
- I (Italian ryegrass) weedkilling efficacy grade (Italian ryegrass [39]): 5 (weed kill ratio 90% or more, (practically complete withering))
- H (black-grass) weedkilling efficacy grade (black-grass [40]): 5 (weed kill ratio 90% or more, (practically complete withering))
- b (directly sown rice) effect on crop grade (directly sown rice [41]): 4 (weed kill ratio 70% or more, less than 90%)
- C (oval-leafed pondweed) weedkilling efficacy grade (oval-leafed pondweed [42]): 5 (weed kill ratio 90% or more, (practically complete withering))
